Measurements: US8101766B2, “Crystalline form of a biphenyl compound” (Theravance, Inc., priority 2004, dated 2012)

What was measured:
[1] = tested on: acetylcholine-induced or histamine-induced bronchoconstriction; assay: Duration of bronchoprotection in guinea pig models of acetylcholine-induced or histamine-induced bronchoconstriction (model not specified for the result); format: in vivo; conditions: inhalation
Experimental: (§1) Duration of Bronchoprotection in Guinea Pig Models of Acetylcholine-Induced or Histamine-Induced Bronchoconstriction
(§2) To isolate muscarinic antagonist activity in the acetylcholine-induced bronchoconstriction model, the animals were administered propanolol, a compound that blocks β receptor activity, prior to the administration of acetylcholine. Duration of bronchoprotection in the histamine-induced bronchoconstriction model reflects β2 adrenergic receptor agonist activity.
(§3) Groups of 6 male guinea pigs (Duncan-Hartley (HsdPoc:DH) Harlan, Madison, Wis.) weighing between 250 and 350 g were individually identified by cage cards. Throughout the study, animals were allowed access to food and water ad libitum.
(§4) Test compounds were administered via inhalation over 10 minutes in a whole-body exposure dosing chamber (R&S Molds, San Carlos, Calif.). […] This value was measured gravimetrically by comparing pre- and post-nebulization weights of the filled nebulizer.
(§5) The bronchoprotective effects of test compounds administered via inhalation were evaluated using whole body plethysmography at 1.5, 24, 48 and 72 hours post-dose. […]
(§6) Once it was determined that baseline values were within the range of 0.3-0.9 mL/cm H2O for compliance and within the range of 0.1-0.199 cm H2O/mL per second for resistance, the pulmonary evaluation was initiated. […]

[2] = tested on: MCh-induced bronchoconstriction; assay: Bronchoprotection in guinea pig model of acetylcholine-induced bronchoconstriction; format: in vivo; conditions: inhalation
Experimental: as §1, §2, §3, §4, §5, §6

## COc1cc(NC(=O)CCN2CCC(OC(=O)Nc3ccccc3-c3ccccc3)CC2)c(Cl)cc1CNC[C@H](O)c1ccc(O)c2[nH]c(=O)ccc12 [compound of formula I, biphenyl-2-ylcarbamic acid 1-[2-(2-chloro-4-{[(R)-2-hydroxy-2-(8-hydroxy-2-oxo-1,2-dihydroquinolin-5-yl)ethylamino]methyl}-5-methoxyphenylcarbamoyl)ethyl]piperidin-4-yl ester]
[1]
  duration (PD T1/2) of brochoprotective activity: at least 24 hours
[2]
  bronchoprotective effect against MCh-induced bronchoconstriction: dose-dependent bronchoprotective effect
